From ChEMBL document CHEMBL5338766, “X-ray Crystal Structure-Guided Discovery of Novel Indole Analogues as Colchicine-Binding Site Tubulin Inhibitors with Immune-Potentiating and Antitumor Effects against Melanoma” (J Med Chem, 2023) come the findings set out here.

Molecules are shown by their SMILES.

For orientation: IC50 means the concentration at which inhibition is half-maximal.

Data set [1] has as its system B16-F10. Kind of data set: Antiproliferative activity against mouse B16-F10 cells assessed as inhibition of cell proliferation incubated for 48 hrs by MTT assay. Type of data set: functional, cell-based. To be noted: B16-F10, 48 h. Background: Tetrazolium dyes change colour on reduction, which living cells bring about.
For data set [2], the system named is HepG2. Kind of data set: Antiproliferative activity against human HepG2 cells assessed as inhibition of cell proliferation incubated for 48 hrs by MTT assay. It is filed as functional, cell-based. Conditions: HepG2, 48 h.
The subject of data set [3] is HeLa. The data set is described as follows: Antiproliferative activity against human HeLa cells assessed as inhibition of cell proliferation incubated for 48 hrs by MTT assay. Type of data set: functional, cell-based.
Data set [4] concerns MCF7. The data set is described as follows: Antiproliferative activity against human MCF7 cells assessed as inhibition of cell proliferation incubated for 48 hrs by MTT assay. Type of data set: functional, cell-based. To be noted: MCF7, 48 h.
Data set [5] concerns B16-F10. Kind of data set: Antitumor immunity in C57 mouse implanted with mouse B16-F10 cells assessed as increase in CD3+ CD4+ helper T cells in tumor at 5 mg/kg, ip administered every day for 14 days by flow cytometric analysis (reference value: 0.332%). It is filed as functional. Conditions: time 14 day.
Data set [6] is described as follows: Toxicity in C57 mouse implanted with mouse B16-F10 cells assessed as pathological changes in heart at 5 mg/kg, ip administered every day for 14 days by H&E staining based microscopic analysis. It is filed as organism-based. To be noted: in vivo, 336 h, time 14 day.
Data set [7] can be described thus: Toxicity in C57 mouse implanted with mouse B16-F10 cells assessed as body weight loss at 5 mg/kg, ip administered every day for 14 days. Type of data set: organism-based. To be noted: in vivo, 336 h, time 14 day.
A short description of data set [8]: Toxicity in C57 mouse implanted with mouse B16-F10 cells assessed as pathological changes in kidney at 5 mg/kg, ip administered every day for 14 days by H&E staining based microscopic analysis. It is filed as organism-based. To be noted: in vivo, 336 h, time 14 day.
Data set [9] in a line: Toxicity in C57 mouse implanted with mouse B16-F10 cells assessed as pathological changes in liver at 5 mg/kg, ip administered every day for 14 days by H&E staining based microscopic analysis. Type of data set: organism-based. Conditions: in vivo, 336 h, time 14 day.
The test system of data set [10] is B16-F10. The data set is described as follows: Antitumor activity against mouse B16-F10 cells implanted in C57 mouse assessed as tumor growth inhibition at 5 mg/kg, ip administered every day for 14 days relative to control. Type of data set: functional. To be noted: B16-F10, 336 h, time 14 day, read-out: TGI.
For data set [11], the system named is B16-F10. Kind of data set: Antitumor immunity in C57 mouse implanted with mouse B16-F10 cells assessed as increase in CD3+ CD8+ cytotoxic T cells in tumor at 5 mg/kg, ip administered every day for 14 days by flow cytometric analysis (reference value: 0.340%). Type of data set: functional. Conditions: time 14 day. Background: In flow cytometry, cells or beads pass a laser one at a time.

Data set [12] in a line: Antiproliferative activity against paclitaxel resistant human A549/TxR cells assessed as inhibition of cell proliferation incubated for 48 hrs by MTT assay. Type of data set: functional, cell-based.
Data set [13] deals with A2780S. Kind of data set: Antiproliferative activity against parental human A2780S cells assessed as inhibition of cell proliferation incubated for 48 hrs by MTT assay. Type of data set: functional, cell-based.
Data set [14] relates to A2780/Taxol. The data set is described as follows: Antiproliferative activity against paclitaxel resistant human A2780/Taxol cells assessed as inhibition of cell proliferation incubated for 48 hrs by MTT assay. Type of data set: functional, cell-based.
The nature of data set [15]: Antiproliferative activity against parental human A549S cells assessed as inhibition of cell proliferation incubated for 48 hrs by MTT assay. It is filed as functional, cell-based.
Data set [16] in a line: Resistance index, ratio of IC50 for antiproliferative activity against paclitaxel resistant human A2780/Taxol cells to IC50 for antiproliferative activity against parental human A2780S cells. Type of data set: functional.
A short description of data set [17]: Resistance index, ratio of IC50 for antiproliferative activity against paclitaxel resistant human A549/TxR cells to IC50 for antiproliferative activity against parental human A549S cells. Type of data set: functional.

Turning to `COc1cc(-c2n[nH]c3ccc(-c4ccc5c(ccn5C)c4)cc23)cc(OC)c1OC`, the half-maximal inhibitory concentration (IC50) in [1] worked out at 98 nM; in data set [2], 49 nM; in data set [3], 173 nM; in data set [4], 36 nM.

For the compound `COc1cc(-c2n[nH]c3cnc(-c4ccc5c(ccn5C)c4)cc23)cc(OC)c1OC`, the concentration for half-maximal inhibition (IC50) was 1000 nM in data set [1], 248 nM in [2], 969 nM in [3] and 861 nM in data set [4].

Consider `Cc1c(COc2cc3c(cc2Cl)CN(C(C)(C)C(=O)O)C(c2cccc(C#N)c2)O3)cccc1-c1ccccc1` (centres undefined), for which the Activity in data set [5] was 1.43%; in data set [6] it was “Non-Toxic”; in data set [7], “Non-Toxic”; in data set [8], “Non-Toxic”; in data set [9], “Non-Toxic”; in [11] it was 2.27%. Also, the inhibition in vivo at 5 mg/kg in [10] turned out to be 48.5%.

On to `CCn1ccc2cc(-c3nc4c(-c5cc(OC)c(OC)c(OC)c5)nccc4[nH]3)ccc21`, for which the half-inhibitory concentration (IC50) in data set [1] is 237 nM; in data set [2], 130 nM; in data set [3] it was 195 nM; in data set [4], 317 nM.

As for `CCn1ccc2c(-c3nc4c(-c5cc(OC)c(OC)c(OC)c5)nccc4[nH]3)cccc21`, the IC50 is 18 nM in [1], 11 nM in [2], 29 nM in [3] and 22 nM in data set [4].

As for `COc1ccc(-c2ccc3[nH]nc(-c4cc(OC)c(OC)c(OC)c4)c3n2)cc1`, the 50% inhibitory concentration (IC50) came to 271 nM in data set [1], 87 nM in data set [2], 188 nM in data set [3] and 319 nM in data set [4].

As for `COc1cc(-c2n[nH]c3ccc(-c4cccc5c4ccn5C)cc23)cc(OC)c1OC`, the IC50 in data set [1] came out at 66 nM; in data set [2] it was 30 nM; in data set [3] it was 48 nM; in [4], 45 nM.

On to `COc1cc(-c2n[nH]c3ccc(-c4cccc5c4ccn5C)nc23)cc(OC)c1OC`, for which the IC50 in [1] stood at 21 nM; in [2], 6 nM; in [3], 40 nM; in data set [4], 28 nM.

For the compound `COc1cc(-c2n[nH]c3cnc(-c4cccc5c4ccn5C)cc23)cc(OC)c1OC`, the half-inhibitory concentration (IC50) in [1] worked out at 197 nM; in data set [2] it was 82 nM; in data set [3], 154 nM; in data set [4], 135 nM.

As to `COc1cc(-c2n[nH]c3ccc(-c4ccc(C)cc4)nc23)cc(OC)c1OC`, the IC50 in [1] is 32 nM; in [2], 19 nM; in data set [3] it was 92 nM; in data set [4] it was 58 nM.

In the case of `COc1cc(-c2nccc3[nH]c(-c4ccc5ccn(C)c5c4)nc23)cc(OC)c1OC`, the IC50 in data set [1] was 33 nM; in [2] it was 18 nM; in data set [3] it was 45 nM; in data set [4], 30 nM.

In the case of `Cn1ccc2c(-c3nc4c(-c5ccc6c(c5)OCCO6)nccc4[nH]3)cccc21`, the concentration for half-maximal inhibition (IC50) in data set [1] came to 138 nM; in [2] it was 119 nM; in [3] it was 92 nM; in [4] it was 213 nM.

With `COc1cc(-c2n[nH]c3ccc(-c4ccc5c(ccn5C)c4)nc23)cc(OC)c1OC`, the half-maximal inhibitory concentration (IC50) in data set [1] was 43 nM; in data set [2] it was 16 nM; in data set [3], 48 nM; in [4], 35 nM.

As to `COc1cc(-c2nn(C(=O)OC(C)(C)C)c3ccc(-c4cccc5c4ccn5C)cc23)cc(OC)c1OC`, the IC50 in data set [1] was found to be 492 nM; in data set [2], 356 nM; in data set [3] it was 677 nM; in [4] it was 350 nM.

Regarding `COc1cc(-c2nn(C(=O)OC(C)(C)C)c3ccc(-c4cccc5c4ccn5C)nc23)cc(OC)c1OC`, the IC50 in [1] came out at 386 nM; in data set [2] it was 210 nM; in data set [3] it was 581 nM; in data set [4], 277 nM.

Take `COc1ccc(-c2nccc3[nH]c(-c4cccc5c4ccn5C)nc23)cc1OC`: the IC50 in [1] worked out at 199 nM; in data set [2] it was 256 nM; in data set [3], 453 nM; in data set [4], 699 nM.

As to `CCn1ccc2ccc(-c3nc4c(-c5cc(OC)c(OC)c(OC)c5)nccc4[nH]3)cc21`, the half-inhibitory concentration (IC50) in [1] stood at 631 nM; in data set [2], 509 nM; in data set [3] it was 818 nM; in [4], 602 nM.

On to `COc1cc(-c2n[nH]c3ccc(-c4ccccc4)nc23)cc(OC)c1OC`, for which the IC50 in data set [1] was 683 nM; in data set [2], 115 nM; in data set [3], 742 nM; in data set [4] it was 957 nM.

Consider `COc1cc(-c2nccc3[nH]c(-c4ccc5c(ccn5C)c4)nc23)cc(OC)c1OC`, for which the IC50 in [1] was 60 nM; in data set [2], 44 nM; in data set [3], 71 nM; in data set [4], 36 nM.

With `COc1cc2c(c(OC)c1OC)-c1ccc(OC)c(=O)cc1[C@@H](NC(C)=O)CC2` [COLCHICINE], the IC50 in [12] stood at 677 nM; in data set [13] it was 23.2 nM; in data set [14], 670 nM; in [15], 104 nM; in data set [4] it was 22 nM.

As for `COc1cc(-c2nn(C(=O)OC(C)(C)C)c3cnc(-c4cccc5c4ccn5C)cc23)cc(OC)c1OC`, the IC50 was determined as 5170 nM in [1], 4700 nM in [2], 5930 nM in data set [3] and 7660 nM in data set [4].

Regarding `COc1cc(-c2cccc3[nH]c(-c4cccc5c4ccn5C)nc23)cc(OC)c1OC`, the half-inhibitory concentration (IC50) in [2] was 15 nM.

Turning to `COc1cc(OC)cc(-c2nccc3[nH]c(-c4cccc5c4ccn5C)nc23)c1`, the IC50 is 310 nM in data set [1], 238 nM in data set [2], 105 nM in data set [3] and 260 nM in data set [4].

Consider `CC(=O)O[C@H]1C(=O)[C@@]2(C)[C@H]([C@H](OC(=O)c3ccccc3)[C@]3(O)C[C@H](OC(=O)[C@H](O)[C@@H](NC(=O)c4ccccc4)c4ccccc4)C(C)=C1C3(C)C)[C@]1(OC(C)=O)CO[C@@H]1C[C@@H]2O` [PACLITAXEL], for which the Activity result in [6], in data set [7], in [8] and in data set [9] was “Non-Toxic” in each case. The results for the “Ratio IC50” value in data set [16] and in [17] were 746.5 and 135.9, respectively. Further, the 50% inhibitory concentration (IC50) in [12] turned out to be 3380 nM; in data set [13] it was 2.7 nM; in [14] it was 2020 nM; in data set [15], 24.9 nM. Besides, the inhibition in vivo at 5 mg/kg in data set [10] was determined as 70.4%.
